This is an account of results in publication PMC6173509, “C-3- and C-4-Substituted Bicyclic Coumarin Sulfamates as Potent Steroid Sulfatase Inhibitors” (ACS Omega, 2018).

Structures are written as SMILES. pIC50: −log10 of the molar value. Bounds are passed on as bounds.

The target in one data set is T1, steroid sulfatase (STS) (Homo sapiens, UniProt P08842).
T1 sequence (P08842 22-583): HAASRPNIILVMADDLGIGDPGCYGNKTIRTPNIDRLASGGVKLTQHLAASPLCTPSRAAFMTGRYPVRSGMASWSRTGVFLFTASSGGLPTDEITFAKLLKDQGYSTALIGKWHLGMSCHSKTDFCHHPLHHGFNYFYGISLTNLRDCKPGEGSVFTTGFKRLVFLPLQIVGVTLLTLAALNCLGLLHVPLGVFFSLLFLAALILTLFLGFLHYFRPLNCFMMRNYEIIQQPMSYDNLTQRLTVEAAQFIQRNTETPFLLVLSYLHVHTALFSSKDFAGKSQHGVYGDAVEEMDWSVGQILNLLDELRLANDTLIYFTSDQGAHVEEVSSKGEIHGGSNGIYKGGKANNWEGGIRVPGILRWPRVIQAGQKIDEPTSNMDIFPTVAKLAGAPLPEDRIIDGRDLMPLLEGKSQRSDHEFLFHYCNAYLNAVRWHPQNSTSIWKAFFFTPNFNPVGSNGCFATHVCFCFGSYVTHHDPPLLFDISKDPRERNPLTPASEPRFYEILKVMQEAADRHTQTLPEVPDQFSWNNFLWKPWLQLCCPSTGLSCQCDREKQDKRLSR
Experiment: not given
The arrangement: a placental microsomal preparation from a sulfatase-positive human placenta from a normal term pregnancy; from tissue; host or cells: human placenta (microsomal preparation). The conditions noted are these: 0.1 μM inhibitor; cited from earlier work.
As to `CCc1cc(=O)oc2cc(OS(N)(=O)=O)ccc12` [compound 4], the “% Inhibition of STS Activity in Placental Microsomes at 0.1 μM” value (from here on “% Inhibition of STS Activity … at 0.1 μM”) was 35%.

On to `CCCc1cc(=O)oc2cc(OS(N)(=O)=O)ccc12` [compound 5], for which the “% Inhibition of STS Activity … at 0.1 μM” value is given as 42%.

As for `CCc1c(C)c2ccc(OS(N)(=O)=O)cc2oc1=O` [compound 7], the “% Inhibition of STS Activity … at 0.1 μM” value is 57%.

For `CCCc1c(C)c2ccc(OS(N)(=O)=O)cc2oc1=O` [compound 8], the “% Inhibition of STS Activity … at 0.1 μM” value is recorded as 83%.

The same data set, now with this note: 1 μM inhibitor; cited from earlier work.
Turning to `CCc1cc(=O)oc2cc(OS(N)(=O)=O)ccc12` [compound 4], the “% Inhibition of STS Activity in Placental Microsomes at 1 μM” value (from here on “% Inhibition of STS Activity … at 1 μM”) is 88%.

As for `CCCc1cc(=O)oc2cc(OS(N)(=O)=O)ccc12` [compound 5], the “% Inhibition of STS Activity … at 1 μM” value is reported as 94%.

For `CCc1c(C)c2ccc(OS(N)(=O)=O)cc2oc1=O` [compound 7], the “% Inhibition of STS Activity … at 1 μM” value is listed as 96%.

For `CCCc1c(C)c2ccc(OS(N)(=O)=O)cc2oc1=O` [compound 8], the “% Inhibition of STS Activity … at 1 μM” value is given as 97%.

The data set is the same for the next values; noted with them: 10 μM inhibitor; cited from earlier work.
Take `CCc1cc(=O)oc2cc(OS(N)(=O)=O)ccc12` [compound 4]: the “% Inhibition of STS Activity in Placental Microsomes at 10 μM” value (“% Inhibition of STS Activity … at 10 μM” below) was above 99%.

As for `CCCc1cc(=O)oc2cc(OS(N)(=O)=O)ccc12` [compound 5], the “% Inhibition of STS Activity … at 10 μM” value was 96%.

For the molecule `CCc1c(C)c2ccc(OS(N)(=O)=O)cc2oc1=O` [compound 7], the “% Inhibition of STS Activity … at 10 μM” value is on record as above 99%.

Consider `CCCc1c(C)c2ccc(OS(N)(=O)=O)cc2oc1=O` [compound 8], for which the “% Inhibition of STS Activity … at 10 μM” value is listed as above 99%.

The target of another data set is T1, steroid sulfatase (STS). The data set can be described thus: STS inhibition in intact MCF-7 breast cancer cells. The class given is cell-based. The arrangement: endogenous in cells; host or cells: MCF-7 breast cancer cells. The conditions noted are these: 3 nM E1S.
Broadly, the pIC50 is −log10 of the IC50, conventionally taken in molar units. Low readings indicate a high IC50, high ones a low IC50. Consider `NS(=O)(=O)Oc1ccc2c(CCc3ccccc3)cc(=O)oc2c1` [compound 24, 4-(2-Phenylethyl)coumarin-7-O-sulfamate], for which the negative-log IC50 (pIC50) is 7.74.

Regarding `CCc1ccc(-c2cc(=O)oc3cc(OS(N)(=O)=O)ccc23)cc1` [compound 25, 4-(4-Ethylphenyl)coumarin-7-O-sulfamate], the negative logarithm of the IC50 (pIC50) was 6.46.

Molecule `NS(=O)(=O)Oc1ccc2c(C3CCCCC3)cc(=O)oc2c1` [compound 26, 4-Cyclohexylcoumarin-7-O-sulfamate] showed a pIC50 of 7.62.

With `CCCCCCCCCc1c(C)c2ccc(OS(N)(=O)=O)cc2oc1=O` [compound 32, 4-Methyl-3-nonylcoumarin-7-O-sulfamate], the pIC50 is around 8.00.

Consider `CCCCCCCCCCc1c(C)c2ccc(OS(N)(=O)=O)cc2oc1=O` [compound 33, 3-Decyl-4-methylcoumarin-7-O-sulfamate], for which the negative logarithm of the IC50 (pIC50) was above 8.00.

Staying with this data set, now noted: MCF7, read-out: % Inhibition of STS Activity in Intact MCF-7 Breast Cancer Cells at 0.01 μM.
Broadly, the inhibition is the percentage by which the read-out fell short of the control. Regarding `NS(=O)(=O)Oc1ccc2c(CCc3ccccc3)cc(=O)oc2c1` [compound 24, 4-(2-Phenylethyl)coumarin-7-O-sulfamate], the inhibition at 0.01 µM worked out at 39%.

In the case of `CCc1ccc(-c2cc(=O)oc3cc(OS(N)(=O)=O)ccc23)cc1` [compound 25, 4-(4-Ethylphenyl)coumarin-7-O-sulfamate], the inhibition at 0.01 µM was determined as 6%.

Take `NS(=O)(=O)Oc1ccc2c(C3CCCCC3)cc(=O)oc2c1` [compound 26, 4-Cyclohexylcoumarin-7-O-sulfamate]: the inhibition at 0.01 µM came to 37%.

Consider `CCCCCCCCCc1c(C)c2ccc(OS(N)(=O)=O)cc2oc1=O` [compound 32, 4-Methyl-3-nonylcoumarin-7-O-sulfamate], for which the inhibition at 0.01 µM was determined as 57%.

`CCCCCCCCCCc1c(C)c2ccc(OS(N)(=O)=O)cc2oc1=O` [compound 33, 3-Decyl-4-methylcoumarin-7-O-sulfamate]: the inhibition at 0.01 µM stood at 80%.

The same data set, now with this note: MCF7, read-out: % Inhibition of STS Activity in Intact MCF-7 Breast Cancer Cells at 0.1 μM.
For the molecule `NS(=O)(=O)Oc1ccc2c(CCc3ccccc3)cc(=O)oc2c1` [compound 24, 4-(2-Phenylethyl)coumarin-7-O-sulfamate], the inhibition at 0.1 µM stood at 84%.

For the molecule `CCc1ccc(-c2cc(=O)oc3cc(OS(N)(=O)=O)ccc23)cc1` [compound 25, 4-(4-Ethylphenyl)coumarin-7-O-sulfamate], the inhibition at 0.1 µM is 24%.

With `NS(=O)(=O)Oc1ccc2c(C3CCCCC3)cc(=O)oc2c1` [compound 26, 4-Cyclohexylcoumarin-7-O-sulfamate], the inhibition at 0.1 µM was found to be 72%.

On to `CCCCCCCCCc1c(C)c2ccc(OS(N)(=O)=O)cc2oc1=O` [compound 32, 4-Methyl-3-nonylcoumarin-7-O-sulfamate], for which the inhibition at 0.1 µM was 96%.

For `CCCCCCCCCCc1c(C)c2ccc(OS(N)(=O)=O)cc2oc1=O` [compound 33, 3-Decyl-4-methylcoumarin-7-O-sulfamate], the inhibition at 0.1 µM was 97%.

Staying with this data set, now noted: MCF7, read-out: % Inhibition of STS Activity in Intact MCF-7 Breast Cancer Cells at 1 μM.
As to `NS(=O)(=O)Oc1ccc2c(CCc3ccccc3)cc(=O)oc2c1` [compound 24, 4-(2-Phenylethyl)coumarin-7-O-sulfamate], the inhibition at 1 µM amounted to 95%.

For the molecule `CCc1ccc(-c2cc(=O)oc3cc(OS(N)(=O)=O)ccc23)cc1` [compound 25, 4-(4-Ethylphenyl)coumarin-7-O-sulfamate], the inhibition at 1 µM was found to be 73%.

Take `NS(=O)(=O)Oc1ccc2c(C3CCCCC3)cc(=O)oc2c1` [compound 26, 4-Cyclohexylcoumarin-7-O-sulfamate]: the inhibition at 1 µM is 80%.

Turning to `CCCCCCCCCc1c(C)c2ccc(OS(N)(=O)=O)cc2oc1=O` [compound 32, 4-Methyl-3-nonylcoumarin-7-O-sulfamate], the inhibition at 1 µM was found to be 99%.

`CCCCCCCCCCc1c(C)c2ccc(OS(N)(=O)=O)cc2oc1=O` [compound 33, 3-Decyl-4-methylcoumarin-7-O-sulfamate]: the inhibition at 1 µM stood at 99%.

The same data set, now with this note: MCF7, read-out: % Inhibition of STS Activity in Intact MCF-7 Breast Cancer Cells at 10 μM.
`NS(=O)(=O)Oc1ccc2c(CCc3ccccc3)cc(=O)oc2c1` [compound 24, 4-(2-Phenylethyl)coumarin-7-O-sulfamate]: the inhibition at 10 µM turned out to be 98%.

Turning to `CCc1ccc(-c2cc(=O)oc3cc(OS(N)(=O)=O)ccc23)cc1` [compound 25, 4-(4-Ethylphenyl)coumarin-7-O-sulfamate], the inhibition at 10 µM stood at 84%.

Regarding `NS(=O)(=O)Oc1ccc2c(C3CCCCC3)cc(=O)oc2c1` [compound 26, 4-Cyclohexylcoumarin-7-O-sulfamate], the inhibition at 10 µM stood at 93%.

In the case of `CCCCCCCCCc1c(C)c2ccc(OS(N)(=O)=O)cc2oc1=O` [compound 32, 4-Methyl-3-nonylcoumarin-7-O-sulfamate], the inhibition at 10 µM is 99%.

As to `CCCCCCCCCCc1c(C)c2ccc(OS(N)(=O)=O)cc2oc1=O` [compound 33, 3-Decyl-4-methylcoumarin-7-O-sulfamate], the inhibition at 10 µM worked out at 97%.

A further data set addresses T1, steroid sulfatase (STS). Put plainly: STS inhibition in placental microsomes. The class given is biochemical. Also noted: a placental microsomal preparation from a sulfatase-positive human placenta from a normal term pregnancy; from tissue; host or cells: human placenta (microsomal preparation). The conditions noted are these: 0.01 μM inhibitor; 20 μM E1S.
Turning to `NS(=O)(=O)Oc1ccc2c(CCc3ccccc3)cc(=O)oc2c1` [compound 24, 4-(2-Phenylethyl)coumarin-7-O-sulfamate], the inhibition at 0.01 µM worked out at 8%.

The molecule `NS(=O)(=O)Oc1ccc2c(C3CCCCC3)cc(=O)oc2c1` [compound 26, 4-Cyclohexylcoumarin-7-O-sulfamate] gave an inhibition at 0.01 µM of 9%.

`CCCCCCCCCc1c(C)c2ccc(OS(N)(=O)=O)cc2oc1=O` [compound 32, 4-Methyl-3-nonylcoumarin-7-O-sulfamate]: testing at 0.01 µM gave an inhibition of 21%.

Consider `CCCCCCCCCCc1c(C)c2ccc(OS(N)(=O)=O)cc2oc1=O` [compound 33, 3-Decyl-4-methylcoumarin-7-O-sulfamate], for which testing at 0.01 µM gave an inhibition of 3%.

The data set is the same for the next values; noted with them: 0.1 μM inhibitor; 20 μM E1S.
With `NS(=O)(=O)Oc1ccc2c(CCc3ccccc3)cc(=O)oc2c1` [compound 24, 4-(2-Phenylethyl)coumarin-7-O-sulfamate], at 0.1 µM the inhibition was 53%.

As for `NS(=O)(=O)Oc1ccc2c(C3CCCCC3)cc(=O)oc2c1` [compound 26, 4-Cyclohexylcoumarin-7-O-sulfamate], at 0.1 µM the inhibition was 69%.

Regarding `CCCCCCCCCc1c(C)c2ccc(OS(N)(=O)=O)cc2oc1=O` [compound 32, 4-Methyl-3-nonylcoumarin-7-O-sulfamate], the inhibition at 0.1 µM was 85%.

The molecule `CCCCCCCCCCc1c(C)c2ccc(OS(N)(=O)=O)cc2oc1=O` [compound 33, 3-Decyl-4-methylcoumarin-7-O-sulfamate] came in with an inhibition at 0.1 µM of 33%.

The same data set, now with this note: 1 μM inhibitor; 20 μM E1S.
Molecule `NS(=O)(=O)Oc1ccc2c(CCc3ccccc3)cc(=O)oc2c1` [compound 24, 4-(2-Phenylethyl)coumarin-7-O-sulfamate] had an inhibition at 1 µM of 93%.

Turning to `CCc1ccc(-c2cc(=O)oc3cc(OS(N)(=O)=O)ccc23)cc1` [compound 25, 4-(4-Ethylphenyl)coumarin-7-O-sulfamate], the inhibition at 1 µM came to 27%.

Regarding `NS(=O)(=O)Oc1ccc2c(C3CCCCC3)cc(=O)oc2c1` [compound 26, 4-Cyclohexylcoumarin-7-O-sulfamate], at 1 µM the inhibition was 94%.

`CCCCCCCCCc1c(C)c2ccc(OS(N)(=O)=O)cc2oc1=O` [compound 32, 4-Methyl-3-nonylcoumarin-7-O-sulfamate] showed an inhibition at 1 µM of 97%.

Consider `CCCCCCCCCCc1c(C)c2ccc(OS(N)(=O)=O)cc2oc1=O` [compound 33, 3-Decyl-4-methylcoumarin-7-O-sulfamate], for which testing at 1 µM gave an inhibition of 79%.

The same data set, now with this note: 10 μM inhibitor; 20 μM E1S.
The molecule `NS(=O)(=O)Oc1ccc2c(CCc3ccccc3)cc(=O)oc2c1` [compound 24, 4-(2-Phenylethyl)coumarin-7-O-sulfamate] gave an inhibition at 10 µM of 98%.

The molecule `CCc1ccc(-c2cc(=O)oc3cc(OS(N)(=O)=O)ccc23)cc1` [compound 25, 4-(4-Ethylphenyl)coumarin-7-O-sulfamate] gave an inhibition at 10 µM of 85%.

In the case of `NS(=O)(=O)Oc1ccc2c(C3CCCCC3)cc(=O)oc2c1` [compound 26, 4-Cyclohexylcoumarin-7-O-sulfamate], the inhibition at 10 µM amounted to 99%.

The molecule `CCCCCCCCCc1c(C)c2ccc(OS(N)(=O)=O)cc2oc1=O` [compound 32, 4-Methyl-3-nonylcoumarin-7-O-sulfamate] had an inhibition at 10 µM of 98%.

For the molecule `CCCCCCCCCCc1c(C)c2ccc(OS(N)(=O)=O)cc2oc1=O` [compound 33, 3-Decyl-4-methylcoumarin-7-O-sulfamate], 10 µM produced 94% inhibition.

Still in this data set, the particulars now being: 20 μM E1S.
`NS(=O)(=O)Oc1ccc2c(CCc3ccccc3)cc(=O)oc2c1` [compound 24, 4-(2-Phenylethyl)coumarin-7-O-sulfamate] showed a pIC50 of 7.09.

Regarding `CCc1ccc(-c2cc(=O)oc3cc(OS(N)(=O)=O)ccc23)cc1` [compound 25, 4-(4-Ethylphenyl)coumarin-7-O-sulfamate], the pIC50 was 5.59.

Take `NS(=O)(=O)Oc1ccc2c(C3CCCCC3)cc(=O)oc2c1` [compound 26, 4-Cyclohexylcoumarin-7-O-sulfamate]: the pIC50 is 7.38.

The molecule `CCCCCCCCCCc1c(C)c2ccc(OS(N)(=O)=O)cc2oc1=O` [compound 33, 3-Decyl-4-methylcoumarin-7-O-sulfamate] showed a negative-log IC50 (pIC50) of 6.60.
